Test results published in US11498899B2, “Nitrone herbicides” (FMC Corporation, priority 2016, dated 2022).

Key:
[1] = test system: barnyardgrass (Echinochloa crus-galli); test: Test A preemergence, visual injury rating 0-100 (0 no effect, 100 complete control); type: in vivo; settings: for Barnyardgrass plant response rating: 31 g ai/ha, 0 to 100 scale (0 no effect, 100 complete control), approx. 10 days; for Barnyardgrass plant response rating (0 to 100 scale): 125 g ai/ha
[2] = test system: ducksalad (Heteranthera limosa); test: Test B flooded paddy test, visual rating 0-100; settings: Flood, 250 g ai/ha, applied to paddy water, rated after 13 to 15 days
kochia (Kochia scoparia) [3] = test: Test A preemergence, visual injury rating 0-100; type: in vivo; settings: for Kochia plant response rating: 31 g ai/ha, 0 to 100 scale (0 no effect, 100 complete control), approx. 10 days; for Kochia plant response rating (0 to 100 scale): 125 g ai/ha
[4] = test system: ragweed (common ragweed, Ambrosia elatior); test: Test A preemergence, visual injury rating 0-100; type: in vivo; settings: for Ragweed plant response rating: 31 g ai/ha, 0 to 100 scale (0 no effect, 100 complete control), approx. 10 days; for Ragweed plant response rating (0 to 100 scale): 125 g ai/ha
[5] = test system: pigweed (Amaranthus retroflexus); test: Test A preemergence, visual injury rating 0-100; type: in vivo; settings: for Pigweed plant response rating: 31 g ai/ha, 0 to 100 scale (0 no effect, 100 complete control), approx. 10 days; for Pigweed plant response rating (0 to 100 scale): 125 g ai/ha
[6] = test system: ryegrass, Italian (Italian ryegrass, Lolium multiflorum); test: Test A preemergence, visual injury rating 0-100; type: in vivo; settings: for Ryegrass, Italian plant response rating: 31 g ai/ha, 0 to 100 scale (0 no effect, 100 complete control), approx. 10 days; for Ryegrass, Italian plant response rating (0 to 100 scale): 125 g ai/ha
[7] = test system: foxtail, green (green foxtail, Setaria viridis); test: Test A preemergence, visual injury rating 0-100; type: in vivo; settings: for Foxtail, Green plant response rating: 31 g ai/ha, 0 to 100 scale (0 no effect, 100 complete control), approx. 10 days; for Foxtail, Green plant response rating (0 to 100 scale): 125 g ai/ha
[8] = test system: wheat (Triticum aestivum); test: Test A postemergence, visual injury rating 0-100; type: in vivo; settings: 0 to 100 scale
kochia (Kochia scoparia) [9] = test: Test A postemergence, visual injury rating 0-100; type: in vivo; settings: 0 to 100 scale
[10] = test system: barnyardgrass (Echinochloa crus-galli); test: Test A postemergence, visual injury rating 0-100; type: in vivo; settings: 0 to 100 scale
[11] = test system: ragweed (common ragweed, Ambrosia elatior); test: Test A postemergence, visual injury rating 0-100; type: in vivo; settings: 0 to 100 scale
corn (Zea mays) = test: Test A postemergence, visual injury rating 0-100; type: in vivo; settings: 0 to 100 scale
[12] = test system: pigweed (Amaranthus retroflexus); test: Test A postemergence, visual injury rating 0-100; type: in vivo; settings: 0 to 100 scale
[13] = test system: ryegrass, Italian (Italian ryegrass, Lolium multiflorum); test: Test A postemergence, visual injury rating 0-100; type: in vivo; settings: 0 to 100 scale
[14] = test system: galium (catchweed bedstraw, Galium aparine); test: Test A postemergence, visual injury rating 0-100; type: in vivo; settings: 0 to 100 scale
[15] = test system: blackgrass (Alopecurus myosuroides); test: Test A postemergence, visual injury rating 0-100; type: in vivo; settings: 0 to 100 scale
[16] = test system: foxtail, green (green foxtail, Setaria viridis); test: Test A postemergence, visual injury rating 0-100; type: in vivo; settings: 0 to 100 scale
rice (Oryza sativa) = test: Test B flooded paddy test, visual rating 0-100 (0 no effect, 100 complete control); settings: Flood, 250 g ai/ha, applied to paddy water, rated after 13 to 15 days
[17] = test system: barnyardgrass (Echinochloa crus-galli); test: Test B flooded paddy test, visual rating 0-100; settings: Flood, 250 g ai/ha, applied to paddy water, rated after 13 to 15 days

| Compound | Barnyardgrass plant response rating [1] | Barnyardgrass plant response rating (0 to 100 scale) [1] | Ducksalad plant response rating (0 to 100 scale) [2] | Kochia plant response rating (kochia (Kochia scoparia) [3]) | Kochia plant response rating (0 to 100 scale) (kochia (Kochia scoparia) [3]) | Ragweed plant response rating [4] | Ragweed plant response rating (0 to 100 scale) [4] | Pigweed plant response rating [5] | Pigweed plant response rating (0 to 100 scale) [5] | Ryegrass, Italian plant response rating [6] | Ryegrass, Italian plant response rating (0 to 100 scale) [6] | Foxtail, Green plant response rating [7] | Foxtail, Green plant response rating (0 to 100 scale) [7] | Wheat plant response rating ([8]; 31 g ai/ha) | Wheat plant response rating ([8]; 125 g ai/ha) | Kochia plant response rating (kochia (Kochia scoparia) [9]; 31 g ai/ha) | Kochia plant response rating (kochia (Kochia scoparia) [9]; 125 g ai/ha) | Barnyardgrass plant response rating ([10]; 31 g ai/ha) | Barnyardgrass plant response rating ([10]; 125 g ai/ha) | Ragweed plant response rating ([11]; 31 g ai/ha) | also measured |
| --- | --- | --- | --- | --- | --- | --- | --- | --- | --- | --- | --- | --- | --- | --- | --- | --- | --- | --- | --- | --- | --- |
| CC1=[N+]([O-])[C@H](C(=O)Nc2cccc(F)c2F)[C@@H](c2ccc(C(F)(F)F)cc2)C1 [Compound 30, (2S,3R)—N-(2,3-difluorophenyl)-3,4-dihydro-5-methyl-3-[4-(trifluoromethyl)phenyl]-2H-pyrrole-2-carboxamide 1-oxide] | 100 | 100 | 100 | 0 | 80 | 30 | 90 | 0 | 90 | 0 | 90 | 100 | 100 | 40 | 50 | 0 | 0 | 30 | 70 | 0 | melting point: 113 to 117 °C; Ragweed plant response rating ([11]; 125 g ai/ha): 40; Corn plant response rating (corn (Zea mays); 31 g ai/ha): 0; Corn plant response rating (corn (Zea mays); 125 g ai/ha): 70; Pigweed plant response rating ([12]; 31 g ai/ha): 20; Pigweed plant response rating ([12]; 125 g ai/ha): 30; Ryegrass, Italian plant response rating ([13]; 31 g ai/ha): 20; Ryegrass, Italian plant response rating ([13]; 125 g ai/ha): 50; Galium plant response rating ([14]; 31 g ai/ha): 50; Galium plant response rating ([14]; 125 g ai/ha): 50; Blackgrass plant response rating ([15]; 31 g ai/ha): 30; Blackgrass plant response rating ([15]; 125 g ai/ha): 60; Foxtail, Green plant response rating ([16]; 31 g ai/ha): 30; Foxtail, Green plant response rating ([16]; 125 g ai/ha): 80; Rice plant response rating (0 to 100 scale) (rice (Oryza sativa)): 50; Barnyardgrass plant response rating (0 to 100 scale) [17]: 85 |
| CC1=[N+]([O-])[C@@H](C(=O)Nc2cccc(F)c2F)[C@H](c2ccc(F)c(F)c2)C1 [Compound 39] | 100 | 100 | 100 | 0 | 30 | 0 | 100 | 0 | 30 | 20 | 10 | 100 | 100 | 0 | 50 | 0 | 0 | 0 | 60 | 0 | Ragweed plant response rating ([11]; 125 g ai/ha): 0; Corn plant response rating (corn (Zea mays); 31 g ai/ha): 0; Corn plant response rating (corn (Zea mays); 125 g ai/ha): 10; Pigweed plant response rating ([12]; 31 g ai/ha): 0; Pigweed plant response rating ([12]; 125 g ai/ha): 0; Ryegrass, Italian plant response rating ([13]; 31 g ai/ha): 0; Ryegrass, Italian plant response rating ([13]; 125 g ai/ha): 10; Galium plant response rating ([14]; 31 g ai/ha): 0; Galium plant response rating ([14]; 125 g ai/ha): 10; Blackgrass plant response rating ([15]; 31 g ai/ha): 0; Blackgrass plant response rating ([15]; 125 g ai/ha): 50; Foxtail, Green plant response rating ([16]; 31 g ai/ha): 10; Foxtail, Green plant response rating ([16]; 125 g ai/ha): 70; Rice plant response rating (0 to 100 scale) (rice (Oryza sativa)): 10; Barnyardgrass plant response rating (0 to 100 scale) [17]: 90 |
